The text below walks through data of PubChem BioAssay (NCI).

Each structure is given as a SMILES string. Values joined by “and” are separate entries in the source; they are usually repeats but may differ in a detail not shown here. Equal values may be shown once.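 48-hour exposure; five concentrations; linearly interpolated endpoints. Abbreviation: GI50, concentration required for 50% inhibition of growth. TGI marks complete inhibition of growth.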

Test in all cases: NCI anticancer screen, dose series, 48 h
Experiment [1] relates to MCF7 breast.
The subject of experiment [2] is SK-MEL-28 melanoma.
Experiment [3] concerns HS 578T breast.
Experiment [4] deals with U251 CNS.
Experiment [5] has as its system HCT-15 colon.
Experiment [6] concerns UO-31 renal.
The test system of experiment [7] is SN12C renal.
Experiment [8] relates to SNB-19 CNS.
In experiment [9] the test system is NCI-H23 lung.
Experiment [10] has as its system K-562 leukemia.

Consider `CC(=O)NC(CS)C(=O)O` (stereo not given), for which the GI50 in [1], in [2], in experiment [3], in experiment [4], in experiment [5] and in [6] was more than 100 µM throughout. The GI50 in experiment [7], in experiment [8] and in experiment [9] was more than 100 µM in each case. The TGI in experiment [1] is > 100 µM and 71300 µM; in experiment [2], more than 100 µM; in [3], > 100 µM and 87200 µM; in experiment [4], more than 100 µM; in experiment [5], > 100 µM and 47600 µM; in [6] it was > 100 µM and 45400 µM. For the same compound, the TGI is more than 100 µM in experiment [7]; more than 100 µM in [8]; > 100 µM and 62700 µM in experiment [9].
Regarding `COc1ccc(CN2C(=O)/C(=C\C(=O)c3ccc(OCCN4CCCC4)cc3)c3ccccc32)cc1`, the GI50 is 2.05 µM in [10]; 1.79 µM in experiment [2]; 14.3 µM in experiment [3]; 1.65 µM in [5]; 1.66 µM in experiment [6]; 3.83 µM in experiment [8]. Further, the GI50 in experiment [9] was 10.9 µM. For the same compound, the TGI in experiment [10] stood at 6.03 µM; in experiment [2], 3.42 µM; in experiment [3], 54.6 µM; in [5] it was 3.24 µM; in experiment [6] it was 3.11 µM; in experiment [8], 15.1 µM. Further, the TGI in [9] was determined as 36.5 µM.
With `C=C[C@H]1CN2CCc3c([nH]c4c([C@@H]5CCCN5C)c(O)ccc34)[C@@H]2C[C@@H]1C[C@H]1c2[nH]c3ccccc3c2CCN1C`, the TGI in [1] was 3.66 µM and 4.3 µM; in experiment [2], 2.98 µM and 3.3 µM; in experiment [3], 3.04 µM and 3.39 µM; in [4], 2.94 µM and 2.95 µM; in experiment [5], 2.49 µM and 2.9 µM; in experiment [6], 2.8 µM [middle of 4 runs]. The TGI in experiment [7] is 3.13 µM and 3.39 µM; in experiment [8], 3.5 µM and 2.33 µM and 3.2 µM; in experiment [9], 3.63 µM and 3.71 µM. Further, the GI50 in [6] is 1.42 µM and 1.44 µM; in [8] it was 1.09 µM.
Take `C/C=C(\C)c1cc(=O)c2c(C)cc3c(c2o1)C(OC)(OC(C)=O)c1c(O)c(C2CC(C)(N(C)C)C(OC(C)=O)C(C)O2)cc(C2CC(N(C)C)C(OC(C)=O)C(C)O2)c1C3=O` (stereo not given): the TGI in [1] was more than 100 µM; in experiment [2], 26.1 µM; in experiment [3], 7.63 µM; in experiment [4] it was more than 20.4 µM; in experiment [5], 6.9 µM; in [6] it was 4.68 µM. Besides, the TGI in experiment [7] came out at 5.23 µM; in [8], 14.1 µM; in experiment [9], 2.42 µM.
Turning to `C=C1C(=O)O[C@@H]2C[C@@H]1CC[C@]1(C)O[C@H]1CC/C(C)=C/CC[C@@]2(C)O`, the GI50 in [1] was 15.2 µM; in experiment [10], 34.3 µM; in experiment [3] it was 21.7 µM; in experiment [4] it was 15.5 µM; in [5], 8.51 µM; in experiment [6] it was 29.5 µM. Moreover, the GI50 in [7] is 18.6 µM; in experiment [8], 49.6 µM; in [9], 20.9 µM. The TGI is 36 µM in experiment [1]; more than 100 µM in [10]; 68.5 µM in experiment [3]; 28.9 µM in experiment [4]; 21.3 µM in experiment [5]; more than 100 µM in [6]. In addition, the TGI in experiment [7] was 41.1 µM; in experiment [8], more than 100 µM; in experiment [9], 58.4 µM.
Take `CC1NC(C(=O)O)Cc2cc(O)c(O)cc21` (stereo not given): the TGI in experiment [1], in [2], in [3], in experiment [4], in experiment [5] and in experiment [6] was more than 100 µM in each case. In addition, the TGI in [7], in experiment [8] and in experiment [9] was more than 100 µM throughout.
Regarding `O=c1c2cccc(F)c2sc2c(NCCCNCCO)nc3ccccc3c12`, the GI50 is 1.14 µM in experiment [1]; 1.75 µM in experiment [10]; 1.86 µM in experiment [2]; 1.55 µM in experiment [3]; 1.25 µM in [5]; 1.1 µM in experiment [6]. In addition, the figures for the GI50 in [7], in [8] and in experiment [9] were 1.44 µM, 1.65 µM and 1.54 µM, respectively. The TGI in [1] was determined as 2.53 µM; in [10] it was 4.64 µM; in [2] it was 3.31 µM; in [3], 3.53 µM; in [5] it was 2.65 µM; in [6] it was 2.35 µM. Besides, the values for the TGI in [7], in experiment [8] and in experiment [9] were 2.9 µM, 3.17 µM and 2.99 µM, respectively.
Regarding `CN(C)c1ccc(/C=C(\C#N)c2ccccc2)cc1`, the GI50 in experiment [1] was 0.261 µM and 0.276 µM and 0.281 µM; in [10], 0.194 µM and 0.337 µM and 0.35 µM; in [4], 0.378 µM and 0.499 µM and 0.538 µM; in experiment [5], 0.3 µM and 0.348 µM and 0.383 µM; in experiment [6] it was 0.587 µM and 0.698 µM and 1.74 µM; in [7] it was 0.553 µM and 0.788 µM and 0.764 µM. Besides, the GI50 in experiment [8] is 0.481 µM and 0.68 µM and 0.92 µM; in experiment [9], 0.957 µM and 1.33 µM and 0.76 µM. Moreover, the TGI in [1] was more than 100 µM; in experiment [10], more than 100 µM; in experiment [2] it was more than 100 µM; in experiment [4], 55.4 µM and > 100 µM and 91.5 µM; in experiment [5], more than 100 µM; in experiment [6], more than 100 µM. The TGI in experiment [7], in [8] and in experiment [9] was more than 100 µM each time.
As for `O=C(O)CCC(=O)Oc1ccc(O)c2c1CCCC2=O`, the TGI in [10], in [2], in experiment [4], in experiment [5], in [6] and in [7] was more than 100 µM in each case. The TGI in experiment [8] and in experiment [9] was more than 100 µM in each case.
On to `COc1ccc(C2=NN(C=O)C(c3ccc(OS(=O)(=O)c4ccc(C)cc4)c(OC)c3)C2)cc1` (stereo not given), for which the GI50 in experiment [1] was 3.7 µM; in experiment [10], 2.45 µM; in [2] it was 10.6 µM; in [3], 5.66 µM; in [5] it was 4.19 µM; in experiment [6], 3.39 µM. In addition, the GI50 in experiment [7] is 65.9 µM; in experiment [8], 11.7 µM; in experiment [9], 4.58 µM. Also, the TGI in experiment [1] was more than 100 µM; in experiment [10], more than 100 µM; in [2], more than 100 µM; in experiment [3], 88.3 µM; in [5] it was more than 100 µM; in experiment [6], more than 100 µM. For the same compound, the TGI in [7], in experiment [8] and in experiment [9] was more than 100 µM throughout.
